Test results as given in patent US10322161B2, “EPHA4 cyclic peptide antagonists for neuroprotection and neural repair” (Sanford Burnham Prebys Medical Discovery Institute, priority 2014, dated 2019).
“Also recorded” adds a separate entry of the source. Blank lines part the entries; values can stand above or below the molecule they belong to. Ends that are not written are not given here.

Key:
[1] = Stability of antagonistic activity in plasma
EphA4 [2] = target: T1, EphA4 (Mus musculus, UniProt Q03137); test: ELISA, inhibition of ephrin-A5 AP binding to immobilized EphA4 Fc; conditions: C-terminally amidated peptides
T1 construct: mouse EphA4 ectodomain fused to Fc; purchased R&D Systems
T1 sequence (Q03137 20-547 limits assumed): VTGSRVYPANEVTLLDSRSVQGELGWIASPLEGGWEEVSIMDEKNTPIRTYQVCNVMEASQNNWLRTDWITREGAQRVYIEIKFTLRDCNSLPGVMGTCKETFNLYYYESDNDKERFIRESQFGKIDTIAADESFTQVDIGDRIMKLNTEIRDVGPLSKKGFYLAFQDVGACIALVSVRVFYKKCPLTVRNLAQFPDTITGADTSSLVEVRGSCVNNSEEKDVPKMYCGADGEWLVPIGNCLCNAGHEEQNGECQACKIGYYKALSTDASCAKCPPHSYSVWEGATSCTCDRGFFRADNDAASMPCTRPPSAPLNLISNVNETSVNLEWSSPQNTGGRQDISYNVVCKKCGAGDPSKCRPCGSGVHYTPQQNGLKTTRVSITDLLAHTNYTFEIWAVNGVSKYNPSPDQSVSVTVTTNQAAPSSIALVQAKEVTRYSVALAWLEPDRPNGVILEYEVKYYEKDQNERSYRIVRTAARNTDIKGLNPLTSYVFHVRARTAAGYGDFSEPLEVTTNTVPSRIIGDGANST

in vitro [3] = conditions: rat, Half-life (t1/2) CSF
[4] = tested on: HT22 mouse hippocampal neurons; test: MTT cytotoxicity assay; format: cell-based; conditions: HT22 cells, 24 hours, 30 μM
Procedure: HT22 mouse hippocampal neurons were grown in DMEM supplemented with 10% FBS, 1 mM sodium pyruvate and antibiotics. […] The cells were then incubated for 2 hours in 5 mg/mL MTT (Sigma-Aldrich) in PBS at 37° C. in a CO2 incubator. The resulting formazan crystals were solubilized by addition of 100% DMSO and OD570 was measured.

[5] = Stability of antagonistic activity in cerebrospinal fluid (CSF); conditions: rat, depending on the conditions, units inside the value
[6] = tested on: other Eph receptors (EphA2, EphA3, EphA5, EphA6, EphA7, EphA8, EphB1, EphB2, EphB3, EphB4, EphB6); test: Eph receptor selectivity ELISA (ephrin-A5 AP / ephrin-B2 AP binding to Eph receptor Fc); conditions: concentration about 100-fold higher than the IC50 value for EphA4
in vitro [7] = conditions: mouse, plasma, Half-life (t1/2) Plasma
[8] = mouse, plasma, Half-life (t1/2) Plasma
EphA4 [9] = target: EphA4 (Homo sapiens, UniProt P54764); conditions: background statement; cited from earlier work
EphA4 (Homo sapiens, UniProt P54764), sequence (P54764 20-986, species assumed): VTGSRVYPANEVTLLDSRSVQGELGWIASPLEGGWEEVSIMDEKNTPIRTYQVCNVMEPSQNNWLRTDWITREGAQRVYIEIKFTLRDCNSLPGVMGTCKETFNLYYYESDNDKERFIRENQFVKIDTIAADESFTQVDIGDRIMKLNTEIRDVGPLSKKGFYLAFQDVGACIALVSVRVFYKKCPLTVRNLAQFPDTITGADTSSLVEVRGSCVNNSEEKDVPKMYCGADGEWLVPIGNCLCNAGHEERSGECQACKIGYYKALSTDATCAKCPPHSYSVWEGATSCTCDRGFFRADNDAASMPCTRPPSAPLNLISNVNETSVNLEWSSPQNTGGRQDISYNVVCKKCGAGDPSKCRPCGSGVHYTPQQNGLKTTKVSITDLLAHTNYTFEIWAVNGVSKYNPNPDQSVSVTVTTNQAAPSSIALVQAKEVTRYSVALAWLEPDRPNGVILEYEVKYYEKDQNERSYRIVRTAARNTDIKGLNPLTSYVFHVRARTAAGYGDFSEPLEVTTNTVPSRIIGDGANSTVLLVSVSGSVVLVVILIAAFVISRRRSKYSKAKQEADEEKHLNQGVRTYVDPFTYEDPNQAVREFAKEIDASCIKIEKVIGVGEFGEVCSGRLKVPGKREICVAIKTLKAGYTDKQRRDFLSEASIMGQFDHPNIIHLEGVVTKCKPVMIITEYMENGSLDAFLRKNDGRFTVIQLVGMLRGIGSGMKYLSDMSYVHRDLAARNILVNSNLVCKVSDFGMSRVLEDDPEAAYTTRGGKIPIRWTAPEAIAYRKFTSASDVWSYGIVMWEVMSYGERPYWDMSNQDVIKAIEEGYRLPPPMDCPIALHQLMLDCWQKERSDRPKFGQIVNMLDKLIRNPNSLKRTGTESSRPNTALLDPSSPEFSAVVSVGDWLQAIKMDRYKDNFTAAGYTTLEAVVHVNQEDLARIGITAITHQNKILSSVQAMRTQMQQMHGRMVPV

Molecule: CC(C)[C@@H]1NC(=O)[C@@H](NC(=O)[C@H](Cc2ccc(O)cc2)NC(=O)[C@@H]2CCCN2C(=O)[C@H](C)N)CSSC[C@@H](C(N)=O)NC(=O)[C@H](CO)NC(=O)[C@H](Cc2c[nH]c3ccccc23)NC(=O)[C@H](CO)NC(=O)[C@H](C)NC(=O)[C@H](CCCNC(=N)N)NC(=O)[C@H](Cc2ccc(O)cc2)NC1=O [APY-Ala8.am]
loss in potency on replacement of Gly8 (EphA4 [2]; relative to APY.am): about 30 fold

Molecule: CC(C)[C@@H]1NC(=O)[C@@H](NC(=O)[C@H](Cc2ccc(O)cc2)NC(=O)[C@@H]2CCCN2C(=O)[C@H](C)N)CSSC[C@@H](C(N)=O)NC(=O)[C@H](CO)NC(=O)[C@H](Cc2c[nH]c3ccccc23)NC(=O)[C@H](CO)NC(=O)[C@@H](C)NC(=O)[C@H](CCCNC(=N)N)NC(=O)[C@H](Cc2ccc(O)cc2)NC1=O [APY-DAla8.am]
effect of Gly8 replacement on potency (EphA4 [2]): did not substantially affect potency

Molecule: CC(C)[C@@H]1NC(=O)[C@@H](NC(=O)[C@H](Cc2ccc(O)cc2)NC(=O)[C@@H]2CCCN2C(=O)[C@H](C)N)CSSC[C@@H](C(N)=O)NC(=O)[C@H](CO)NC(=O)[C@H](Cc2c[nH]c3ccccc23)NC(=O)[C@H](CO)NC(=O)CCNC(=O)[C@H](CCCNC(=N)N)NC(=O)[C@H](Cc2ccc(O)cc2)NC1=O [APY-βAla8.am, APYCVYRβASWSC-am]
half-life at 200 μM (in vitro [3]): 30 to 180 min | cytotoxicity (MTT) [4]: did not reveal significant cytotoxicity; also recorded: does not have detectable cytotoxic effects | half-life at 200 μM [5]: 30 to 180 min | increase in stability ([1]; relative to KYL and APY): 2-8 fold | inhibition of other Eph receptors [6]: does not inhibit other Eph receptors | half-life at 200 μM (in vitro [7]): ~120 min

Further lines, with some results ahead:

half-life at 200 μM ([1]; mouse, plasma, Half-life (t1/2) Plasma, mouse plasma, 37° C., loss of antagonistic activity): 16 min
Molecule: CC(C)[C@@H]1NC(=O)[C@@H](NC(=O)[C@H](Cc2ccc(O)cc2)NC(=O)[C@@H]2CCCN2C(=O)[C@H](C)N)CSSC[C@@H](C(=O)O)NC(=O)[C@H](CO)NC(=O)[C@H](Cc2c[nH]c3ccccc23)NC(=O)[C@H](CO)NC(=O)CNC(=O)[C@H](CCCNC(=N)N)NC(=O)[C@H](Cc2ccc(O)cc2)NC1=O [APY, reference compound]

half-life at 200 μM (in vitro [3]): ~4320 min | half-life at 200 μM (in vitro [7]): ~4320 min
Molecule: CC(C)[C@@H]1NC(=O)[C@@H](NC(=O)[C@H](Cc2ccc(O)cc2)NC(=O)[C@@H]2CCCN2C(=O)[C@@H](C)N)CSSC[C@@H](C(N)=O)NC(=O)[C@H](CO)NC(=O)[C@H](Cc2c[nH]c3ccccc23)NC(=O)[C@H](CO)NC(=O)CCNC(=O)[C@H](CCCNC(=N)N)NC(=O)[C@H](Cc2ccc(O)cc2)NC1=O [DAla1-PY-βAla8.am, D-APYCVYRβASWSC-am]

half-life [8]: 11 min
Molecule: KYLPYWPVLSSL [KYL]
Kd (EphA4 [9]): 800 to 1000 nM
